Measurements published in patent US12649733B2, “3,6-diamino-pyridazin-3-yl derivatives, pharmaceutical compositions containing them and their uses as pro-apoptotic agents” (LES LABORATOIRES SERVIER, priority 2019, dated 2026).

What was measured:
Bcl-xL protein = biological target: T1, Bcl-xL protein (Homo sapiens, UniProt Q07817, N197C); assay: Fluorescence quenching assay (PUMA peptide displacement); assay type: binding; conditions: 1 nM protein, 400 nM peptide, 2 hours at 23° C.; KI determined from IC50
T1 construct: (2-197)[N197C]; His-His (two His8 stretches joined by a Gly/Ala/Ser/Thr linker)
T1 sequence (Q07817 2-197 N197C): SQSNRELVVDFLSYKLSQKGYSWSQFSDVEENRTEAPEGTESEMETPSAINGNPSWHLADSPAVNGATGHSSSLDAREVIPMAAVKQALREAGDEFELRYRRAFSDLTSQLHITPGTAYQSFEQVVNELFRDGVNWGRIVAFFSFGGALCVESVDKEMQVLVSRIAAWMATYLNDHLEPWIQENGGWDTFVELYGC
Text: Fluorescence quenching assay measures the change in fluorescence intensity of C-terminally Cy5-labeled BCL-xL protein, His-His-(EK)-hs ? (2-197)[N197C] (UniProtKB® primary accession number Q07817-1) having an amino acid sequence (SEQ ID:03): [[…] […] […] […] […]] which is linked in C-terminal region to the amino acid X which corresponds to a cysteine labeled on the sulfur with Sulfo-Cyanine5 from Lumiprobe GmbH catalogue number 13380, upon binding of a C-terminally labeled peptide derived from PUMA (UniProtKB® primary accession number Q9BXH1) having an aminoacid sequence (SEQ ID:04): [[…]] which is linked in C-terminal region to the amino acid X′ where X′ is cysteine labeled on the sulfur with TQ5WS from AAT Bioquest catalogue number 2079.
The addition of a compound which binds competitively to the same site as the peptide will result in an increase in the fluorescence intensity of the protein due to displacement of the fluorescence quencher.
An 11-point serial dilution of each compound was prepared in DMSO the final buffer conditions were 10 mM 4-(2-hydroxyethyl)-1-piperazineethanesulfonic acid [HEPES], 150 mM NaCl, 0.05% Tween 20, pH 7.4 and 5% DMSO. The final protein concentration in the assay was 1 nM with the peptide present at 400 nM. The experiments were incubated for 2 hours at 23° C. before fluorescence intensity was measured on a Biotek SynergyNeo plate reader (Excitation 620 nm, emission 680 nm). […] The KI values were determined from the IC50 values according to Cer et al, Nucleic Acids Res, 2009, Jul. 1: 37(WebServer issue): W441-W445.

MOLT-4 cells = assay: MOLT-4 cell viability, MTT assay; assay type: cell-based; conditions: Homo sapiens, MOLT-4, 48 h, 48 h exposure
In short: (§1)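 Cells grown in RPMI 1640 with 10% heat-inactivated FBS at 37° C, 5% CO2, exposed 48 h to nine 3.16-fold serial compound dilutions in triplicate. MTT added for 4 h, SDS/HCl solubilisation overnight, absorbance at 540 nm; IC50 by four-parameter fit.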

H146 cells = assay: H146 cell viability, MTT assay; assay type: cell-based; conditions: Homo sapiens, NCI-H146, 48 h, 48 h exposure
In short: as §1

Compound | Ki (Bcl-xL protein) [nM] | IC50 (MOLT-4 cells) [nM] | IC50 (H146 cells) [nM]
COC(COc1ccc(C#CCN(C)C)cc1F)Cc1sc(N(C)c2cc(C)c(Nc3nc4ccccc4s3)nn2)nc1C(=O)O (stereo not drawn) [Example 183, 2-({6-[(1,3-Benzothiazol-2-yl)amino]-5-methylpyridazin-3-yl}(methyl)amino)-5-(3-{4-[3-(dimethylamino)prop-1-yn-1-yl]-2-fluorophenoxy}-2-methoxypropyl)-1,3-thiazole-4-carboxylic acid] | 0.0078 | 46.5 | 187
Cc1cc(N(CCCCN2CCNCC2)c2nc(C(=O)O)c(CCCOc3ccc(C#CCN(C)C)cc3F)s2)nnc1Nc1nc2ccccc2s1 [Example 184, 2-[[6-(1,3-Benzothiazol-2-ylamino)-5-methyl-pyridazin-3-yl]-(4-piperazin-1-ylbutyl)amino]-5-[3-[4-[3-(dimethylamino)prop-1-ynyl]-2-fluoro-phenoxy]propyl]thiazole-4-carboxylic acid] | 0.0036 | 184 | 107
CNC/C=C/c1ccc(OCCCc2sc(N(CCCCO)c3cc(C)c(Nc4nc5ccccc5s4)nn3)nc2C(=O)O)c(F)c1 [Example 185, 2-[[6-(1,3-Benzothiazol-2-ylamino)-5-methyl-pyridazin-3-yl]-(4-hydroxybutyl)amino]-5-[3-[2-fluoro-4-[(E)-3-(methylamino)prop-1-enyl]phenoxy]propyl]thiazole-4-carboxylic acid] | 0.0012 | 16.8 | 7
CNCCCc1ccc(OCCCc2sc(N(CCCCO)c3cc(C)c(Nc4nc5ccccc5s4)nn3)nc2C(=O)O)c(F)c1 [Example 186, 2-[[6-(1,3-Benzothiazol-2-ylamino)-5-methyl-pyridazin-3-yl]-(4-hydroxybutyl)amino]-5-[3-[2-fluoro-4-[3-(methylamino)propyl]phenoxy]propyl]thiazole-4-carboxylic acid] | 0.001 | 85.3 | 16.9
Cc1cc(N(CCCCCNCCN2CCCCC2)c2nc(C(=O)O)c(CCCOc3ccc(C#CCN(C)C)cc3F)s2)nnc1Nc1nc2ccccc2s1 [Example 187, 2-[[6-(1,3-Benzothiazol-2-ylamino)-5-methyl-pyridazin-3-yl]-[5-[2-(1-piperidyl)ethylamino]pentyl]amino]-5-[3-[4-[3-(dimethylamino)prop-1-ynyl]-2-fluoro-phenoxy]propyl]thiazole-4-carboxylic acid] | 0.0025 | 103 | 23400
CNCCCCN(c1cc(C)c(Nc2nc3ccccc3s2)nn1)c1nc(C(=O)O)c(CCCOc2ccc(C#CCN(C)C)cc2F)s1 [Example 188, 2-[[6-(1,3-Benzothiazol-2-ylamino)-5-methyl-pyridazin-3-yl]-[4-(methylamino)butyl]amino]-5-[3-[4-[3-(dimethylamino)prop-1-ynyl]-2-fluoro-phenoxy]propyl]thiazole-4-carboxylic acid] | 0.0018 | 3410 | 5.44
Cc1cc(N(CCCCCN2CCNCC2)c2nc(C(=O)O)c(CCCOc3ccc(C#CCN(C)C)cc3F)s2)nnc1Nc1nc2ccccc2s1 [Example 189, 2-[[6-(1,3-Benzothiazol-2-ylamino)-5-methyl-pyridazin-3-yl]-(5-piperazin-1-ylpentyl)amino]-5-[3-[4-[3-(dimethylamino)prop-1-ynyl]-2-fluoro-phenoxy]propyl]thiazole-4-carboxylic acid] | 0.0074 | 171 | 94.8
CNCCN(C)CCCCCN(c1cc(C)c(Nc2nc3ccccc3s2)nn1)c1nc(C(=O)O)c(CCCOc2ccc(C#CCN(C)C)cc2F)s1 [Example 190, 2-[[6-(1,3-Benzothiazol-2-ylamino)-5-methyl-pyridazin-3-yl]-[5-[methyl-[2-(methylamino)ethyl]amino]pentyl]amino]-5-[3-[4-[3-(dimethylamino)prop-1-ynyl]-2-fluoro-phenoxy]propyl]thiazole-4-carboxylic acid] | 0.0032 | 54.9 | 78.3
Cc1cc(N(CCCCCN)c2nc(C(=O)O)c(CCCOc3ccc(C#CCN(C)C)cc3F)s2)nnc1Nc1nc2ccccc2s1 [Example 191, 2-[5-Aminopentyl-[6-(1,3-benzothiazol-2-ylamino)-5-methyl-pyridazin-3-yl]amino]-5-[3-[4-[3-(dimethylamino)prop-1-ynyl]-2-fluoro-phenoxy]propyl]thiazole-4-carboxylic acid] | 0.0028 | 2200 | 83.8
Cc1cc(N(CCCCN)c2nc(C(=O)O)c(CCCOc3ccc(C#CCN(C)C)cc3F)s2)nnc1Nc1nc2ccccc2s1 [Example 192, 2-[4-Aminobutyl-[6-(1,3-benzothiazol-2-ylamino)-5-methyl-pyridazin-3-yl]amino]-5-[3-[4-[3-(dimethylamino)prop-1-ynyl]-2-fluoro-phenoxy]propyl]thiazole-4-carboxylic acid] | 0.0029 | 96.4 | 11.9
CNCC#Cc1ccc(OCCCc2sc(N(CCCC(O)CN(C)C)c3cc(C)c(Nc4nc5ccccc5s4)nn3)nc2C(=O)O)c(F)c1 (stereo not drawn) [Example 193, 2-[[6-(1,3-Benzothiazol-2-ylamino)-5-methyl-pyridazin-3-yl]-[5-(dimethylamino)-4-hydroxy-pentyl]amino]-5-[3-[2-fluoro-4-[3-(methylamino)prop-1-ynyl]phenoxy]propyl]thiazole-4-carboxylic acid] | 0.0013 | 92.5 | 65
CNCCCCCN(c1cc(C)c(Nc2nc3ccccc3s2)nn1)c1nc(C(=O)O)c(CCCOc2ccc(C#CCN(C)C)cc2F)s1 [Example 194, 2-[[6-(1,3-Benzothiazol-2-ylamino)-5-methyl-pyridazin-3-yl]-[5-(methylamino)pentyl]amino]-5-[3-[4-[3-(dimethylamino)prop-1-ynyl]-2-fluoro-phenoxy]propyl]thiazole-4-carboxylic acid] | 0.0032 | 129 | 27
Cc1cc(N(CCCCCNCCCN2CCN(C)CC2)c2nc(C(=O)O)c(CCCOc3ccc(C#CCN(C)C)cc3F)s2)nnc1Nc1nc2ccccc2s1 [Example 195, 2-[[6-(1,3-Benzothiazol-2-ylamino)-5-methyl-pyridazin-3-yl]-[5-[3-(4-methylpiperazin-1-yl)propylamino]pentyl]amino]-5-[3-[4-[3-(dimethylamino)prop-1-ynyl]-2-fluoro-phenoxy]propyl]thiazole-4-carboxylic acid] | 0.0018 | 529 | 525
Cc1cc(N(C)c2nc(C(=O)O)c(CCCOc3ccc(C#CCN4CCOCC4)cc3F)s2)nnc1Nc1nc2ccccc2s1 [Example 198, 2-[[6-(1,3-Benzothiazol-2-ylamino)-5-methyl-pyridazin-3-yl]-methyl-amino]-5-[3-[2-fluoro-4-(3-morpholinoprop-1-ynyl)phenoxy]propyl]thiazole-4-carboxylic acid] | 0.0073 | 1.59 | 1420
CNCC#Cc1ccc(OCCCc2sc(N(CCCCCCN(C)C)c3cc(C)c(Nc4nc5ccccc5s4)nn3)nc2C(=O)O)c(F)c1 [Example 199, 2-[[6-(1,3-Benzothiazol-2-ylamino)-5-methyl-pyridazin-3-yl]-[6-(dimethylamino)hexyl]amino]-5-[3-[2-fluoro-4-[3-(methylamino)prop-1-ynyl]phenoxy]propyl]thiazole-4-carboxylic acid] | 0.001 | 25.9 | 64.1
